From patent publication EP4610269A1, “UROKINASE PLASMINOGEN ACTIVATOR SURFACE RECEPTOR (UPAR) LIGANDS FOR DIAGNOSTIC OR THERAPEUTIC USE” (3B Pharmaceuticals GmbH, priority 2024, dated 2025)
Read-outs that look alike come from different tables or passages of the source. *1 amine or outer side, *2 acyl side, *3 side chain or, on linkers, in order; H or OH if unused. Where a SMILES comes first, the peptide text is derived from it. Bridges are numbered along the chain shown (N, C = ends). [ ]: non-standard residue; d: D form. The star is where a group is joined. DOTA(Lu) = O=C1CN2CCN3CCN(CC(=O)*)CCN(CC2)CC(=O)[O][Lu]([O]1)[O]C(=O)C3; nBuCAyl = n-butyl-carbamoyl (N-terminal blocking group), CCCCNC(=O)*; DOTA = O=C(O)CN1CCN(CC(=O)O)CCN(CC(=O)*)CCN(CC(=O)O)CC1; Phe(4-Cl) = N[C@@H](Cc1ccc(Cl)cc1)C(=O)O; Pro(cis-4-F) = O=C(O)[C@@H]1C[C@H](F)CN1; Phe(2-Cl) = N[C@@H](Cc1ccccc1Cl)C(=O)O; Dopa = N[C@@H](Cc1ccc(O)c(O)c1)C(=O)O; Hyp = O=C(O)[C@@H]1C[C@@H](O)CN1; 3Pal = N[C@@H](Cc1cccnc1)C(=O)O; Pentanoyl(4-Me) = CC(C)CCC(=O)*; Cit = NC(=O)NCCC[C@H](N)C(=O)O; Butoxycarbonyl = CCCCOC(=O)*; Suc = O=C(CCC(=O)[*:2])[*:1]; Nle = CCCC[C@H](N)C(=O)O; dNMeA = CN[C@H](C)C(=O)O; Api = NC1(C(=O)O)CCNCC1; Nva = CCC[C@H](N)C(=O)O; Hexanoyl = CCCCCC(=O)*; Pentanoyl = CCCCC(=O)*

How the values were obtained:
[1] = target: T1, uPAR-expressing HEC-265 human endometrial adenocarcinoma cells (Homo sapiens, UniProt Q03405); experiment: Competitive FACS binding assay; conditions: pIC50 category of FACS binding
T1 construct: Cell surface uPAR-expressing HEC-265 human endometrial adenocarcinoma cells; host or cells: HEC-265
Method in brief: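 HEC-265 cells incubated 1 h at 4 °C with 10 nM biotinylated uPAR peptide tracer plus increasing test compound, then stained with APC-streptavidin on ice. Median APC fluorescence by flow cytometry; 4PL fit gives pIC50.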

human uPAR (uPAR-Fc) = target: T2, human uPAR (uPAR-Fc) (Homo sapiens, UniProt Q03405); experiment: Surface plasmon resonance (SPR) assay, single cycle kinetics; type: binding; conditions: pKD category for uPAR SPR activity assay, uPAR-Fc on Protein A-Chip, 25°C; for Kd: read-out: pKD CAT (converted)
T2 construct: comprising amino acids Leu23-Arg303 according to UniProt entry Q03405.1; purchased R&D Systems 10378-UK-100
Method in brief: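 uPAR-Fc (Leu23-Arg303 extracellular domains, human IgG1 Fc) captured on Protein A chip to ~2000 RU; single-cycle kinetics at 25°C in HEPES running buffer pH 7.4 with 0.1% DMSO. KD from double-referenced sensorgrams fitted to 1:1 Langmuir model, reported as pKD.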

T2 sequence (Q03405 23-303): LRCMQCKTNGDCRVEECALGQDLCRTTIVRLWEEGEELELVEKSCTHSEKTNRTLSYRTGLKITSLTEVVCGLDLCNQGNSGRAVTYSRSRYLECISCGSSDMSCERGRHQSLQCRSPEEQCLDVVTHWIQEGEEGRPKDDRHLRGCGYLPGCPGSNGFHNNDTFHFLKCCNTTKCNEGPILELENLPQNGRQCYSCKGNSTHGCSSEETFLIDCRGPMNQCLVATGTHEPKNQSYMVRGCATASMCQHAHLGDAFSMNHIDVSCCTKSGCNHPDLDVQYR
T1 sequence (Q03405 23-335): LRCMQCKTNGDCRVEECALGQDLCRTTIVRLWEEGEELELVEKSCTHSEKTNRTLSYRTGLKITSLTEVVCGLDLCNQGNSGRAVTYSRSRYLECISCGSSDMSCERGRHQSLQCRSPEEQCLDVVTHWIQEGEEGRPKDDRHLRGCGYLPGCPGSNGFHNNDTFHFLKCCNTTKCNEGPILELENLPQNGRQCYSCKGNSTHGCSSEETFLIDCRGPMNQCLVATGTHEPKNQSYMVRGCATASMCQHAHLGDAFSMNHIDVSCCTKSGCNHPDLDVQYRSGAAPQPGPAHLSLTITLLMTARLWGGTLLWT

| Compound | IC50 [1] [nM] | Kd (human uPAR (uPAR-Fc)) [nM] | Kd (human uPAR (uPAR-Fc); single cycle kinetics) [nM] | also measured |
| --- | --- | --- | --- | --- |
| CCCCC(=O)N[C@H]1CSSC[C@@H](C(N)=O)NC(=O)[C@H](CCC)NC(=O)[C@H](Cc2ccc(Cl)cc2)NC(=O)[C@@H]2C[C@@H](O)CN2C(=O)[C@@H]2CCCN2C(=O)[C@H](Cc2ccccc2)NC(=O)[C@H](Cc2ccc(O)cc2)NC(=O)[C@H](CCC(N)=O)NC(=O)[C@H](CCCNC(=N)N)NC1=O [UPAR-204, Pent-[Cys-Arg-Gln-Tyr-Phe-Pro-Hyp-Pcf-Nva-Cys]-NH2] (Pentanoyl-CRQYFP[Hyp][Phe(4-Cl)][Nva]C-NH2; disulfide 1-10) | ≤ 10 | < 1.58 | – | – |
| CC[C@H](C)[C@@H]1NC(=O)[C@@H](C)NC(=O)[C@H](C)NC(=O)[C@H](Cc2ccccc2)NC(=O)[C@H](Cc2ccc(O)cc2)NC(=O)[C@H](CCC(N)=O)NC(=O)[C@H](CCCNC(N)=O)NC(=O)[C@@H](NC(=O)CCC(C)C)CSSC[C@@H](C(N)=O)NC(=O)[C@H](CC(C)C)NC1=O [UPAR-319, iHex-[Cys-Cit-Gln-Tyr-Phe-Ala-ala-Ile-Leu-Cys]-NH2] ({Pentanoyl(4-Me)}-C[Cit]QYFA[dA]ILC-NH2; disulfide 1-10) | 39.8 to 100 | 10 to 100 | – | – |
| CCCCC(=O)N[C@H]1CSSC[C@@H](C(N)=O)NC(=O)[C@H](CCC)NC(=O)[C@H]([C@@H](C)CC)NC(=O)[C@@H]2C[C@@H](O)CN2C(=O)[C@@H]2CCCN2C(=O)[C@H](Cc2ccccc2)NC(=O)[C@H](Cc2ccc(O)c(O)c2)NC(=O)[C@H](CCCCNC(=O)CN2CCN(CC(=O)O)CCN(CC(=O)O)CCN(CC(=O)O)CC2)NC(=O)[C@H](CCCNC(N)=O)NC1=O [UPAR-399, Pent-[Cys-Cit-Lys(DOTA)-Dopa-Phe-Pro-Hyp-Ile-Nva-Cys]-NH2] (Pentanoyl-C[Cit]K(DOTA)[Dopa]FP[Hyp]I[Nva]C-NH2; disulfide 1-10) | ≤ 10 | – | < 1.58 | – |
| CCCC[C@@H]1NC(=O)[C@H](CCCNC(=N)N)NC(=O)[C@@H](NC(=O)[C@H](CC(C)C)NC(=O)[C@H](CC(=O)O)NC(C)=O)CSSC[C@@H](C(N)=O)NC(=O)[C@@H](CC(C)C)NC(=O)[C@H]([C@@H](C)CC)NC(=O)[C@H](C)NC(=O)[C@@H]2CCCN2C(=O)[C@H](Cc2ccccc2)NC(=O)[C@H](Cc2ccc(O)cc2)NC1=O [UPAR-137, Ac-Asp-Leu-[Cys-Arg-Nle-Tyr-Phe-Pro-Ala-Ile-leu-Cys]-NH2] (Ac-DLCR[Nle]YFPAI[dL]C-NH2; disulfide 3-12) | 12.6 to 31.6 | 1.58 to 10 | – | – |
| CC[C@H](C)[C@@H]1NC(=O)C2(CCN(C(=O)CN3CCN(CC(=O)O)CCN(CC(=O)O)CCN(CC(=O)O)CC3)CC2)NC(=O)[C@@H]2CCCN2C(=O)[C@H](Cc2ccccc2)NC(=O)[C@H](Cc2ccc(O)cc2)NC(=O)[C@H](CCC(N)=O)NC(=O)[C@H](CCCNC(N)=O)NC(=O)[C@@H](NC(=O)CCC(C)C)CSSC[C@@H](C(N)=O)NC(=O)[C@H](CC(C)C)NC1=O [UPAR-219, iHex-[Cys-Cit-Gln-Tyr-Phe-Pro-Apc(DOTA)-Ile-Leu-Cys]-NH2] ({Pentanoyl(4-Me)}-C[Cit]QYFP[Api](DOTA)ILC-NH2; disulfide 1-10) | ≤ 10 | 1.58 to 10 | – | – |
| CCCCC(=O)N[C@H]1CSSC[C@@H](C(N)=O)NC(=O)[C@H](CCC)NC(=O)[C@H]([C@@H](C)CC)NC(=O)[C@@H]2C[C@@H](O)CN2C(=O)[C@@H]2C[C@H](F)CN2C(=O)[C@H](Cc2ccccc2)NC(=O)[C@H](Cc2ccc(O)cc2)NC(=O)[C@H](CCCCNC(=O)CN2CCN(CC(=O)O)CCN(CC(=O)O)CCN(CC(=O)O)CC2)NC(=O)[C@H](CCCNC(N)=O)NC1=O [UPAR-365, Pent-[Cys-Cit-Lys(DOTA)-Tyr-Phe-4Cfp-Hyp-Ile-Nva-Cys]-NH2] (Pentanoyl-C[Cit]K(DOTA)YF[Pro(cis-4-F)][Hyp]I[Nva]C-NH2; disulfide 1-10) | ≤ 10 | – | < 1.58 | – |
| CC[C@H](C)[C@@H]1NC(=O)[C@@H](C)NC(=O)[C@@H]2CCCN2C(=O)[C@H](Cc2ccccc2Cl)NC(=O)[C@H](Cc2ccc(O)cc2)NC(=O)[C@H](CCC(N)=O)NC(=O)[C@H](CCCNC(N)=O)NC(=O)[C@@H](NC(=O)CCC(C)C)CSSC[C@@H](C(N)=O)NC(=O)[C@H](CC(C)C)NC1=O [UPAR-221, iHex-[Cys-Cit-Gln-Tyr-Ocf-Pro-ala-Ile-Leu-Cys]-NH2] ({Pentanoyl(4-Me)}-C[Cit]QY[Phe(2-Cl)]P[dA]ILC-NH2; disulfide 1-10) | ≤ 10 | < 1.58 | – | – |
| Pent-[Cys-Cit-Lys(LuDOTA)-Tyr-Phe-Pro-nma-Ile-Nva-Cys]-NH2 (Pentanoyl-C[Cit]K(DOTA(Lu))YFP[dNMeA]I[Nva]C-NH2; disulfide 1-10; not fully specified; also: Lu(III) complexed by DOTA) [UPAR-151] | – | – | – | pIC50 CAT [1]: A (pIC50 values ≥8.0); pKD CAT (human uPAR (uPAR-Fc)): A (pKD values ≥ 8.8) |
| CC[C@H](C)[C@@H]1NC(=O)[C@H](CCCCNC(=O)CN2CCN(CC(=O)O)CCN(CC(=O)O)CCN(CC(=O)O)CC2)NC(=O)[C@@H]2CCCN2C(=O)[C@H](Cc2ccccc2)NC(=O)[C@H](Cc2ccc(O)cc2)NC(=O)[C@H](CCC(N)=O)NC(=O)[C@@H](C)NC(=O)[C@@H](NC(=O)CCC(C)C)CSSC[C@@H](C(N)=O)NC(=O)[C@H](CC(C)C)NC1=O [UPAR-414, iHex-[Cys-ala-Gln-Tyr-Phe-Pro-Lys(DOTA)-Ile-Leu-Cys]-NH2] ({Pentanoyl(4-Me)}-C[dA]QYFPK(DOTA)ILC-NH2; disulfide 1-10) | 12.6 to 31.6 | – | 10 to 100 | – |
| CCC[C@H](NC(=O)CCC(=O)O)C(=O)N[C@H]1CSSC[C@@H](C(N)=O)NC(=O)[C@H](CCC)NC(=O)[C@H]([C@@H](C)CC)NC(=O)[C@@H]2C[C@@H](O)CN2C(=O)[C@@H]2CCCN2C(=O)[C@H](Cc2ccccc2)NC(=O)[C@H](Cc2ccc(O)cc2)NC(=O)[C@H](CCCCNC(=O)CN2CCN(CC(=O)O)CCN(CC(=O)O)CCN(CC(=O)O)CC2)NC(=O)[C@H]([C@@H](C)O)NC1=O [UPAR-297, Succinyl-Nva-[Cys-Thr-Lys(DOTA)-Tyr-Phe-Pro-Hyp-Ile-Nva-Cys]-NH2] (Suc-[Nva]CTK(DOTA)YFP[Hyp]I[Nva]C-NH2; disulfide 2-11) | ≤ 10 | < 1.58 | – | – |
| CCCCOC(=O)N[C@H]1CSSC[C@@H](C(N)=O)NC(=O)[C@H](CCC)NC(=O)[C@H]([C@@H](C)CC)NC(=O)[C@@H]2C[C@@H](O)CN2C(=O)[C@@H]2C[C@H](F)CN2C(=O)[C@H](Cc2ccccc2)NC(=O)[C@H](Cc2cccnc2)NC(=O)[C@H](CCCCNC(=O)CN2CCN(CC(=O)O)CCN(CC(=O)O)CCN(CC(=O)O)CC2)NC(=O)[C@H]([C@@H](C)O)NC1=O [UPAR-165, Butoc-[Cys-Thr-Lys(DOTA)-Mpa-Phe-4Cfp-Hyp-Ile-Nva-Cys]-NH2] (Butoxycarbonyl-CTK(DOTA)[3Pal]F[Pro(cis-4-F)][Hyp]I[Nva]C-NH2; disulfide 1-10) | ≤ 10 | < 1.58 | – | – |
| CCCCOC(=O)N[C@H]1CSSC[C@@H](C(=O)N[C@@H](CC(=O)O)C(N)=O)NC(=O)[C@H](CCC)NC(=O)[C@H]([C@@H](C)CC)NC(=O)[C@@H]2C[C@@H](O)CN2C(=O)[C@@H]2C[C@H](F)CN2C(=O)[C@H](Cc2ccccc2)NC(=O)[C@H](Cc2ccc(O)cc2)NC(=O)[C@H](CCCCNC(=O)CN2CCN(CC(=O)O)CCN(CC(=O)O)CCN(CC(=O)O)CC2)NC(=O)[C@H]([C@@H](C)O)NC1=O [UPAR-141, Butoc-[Cys-Thr-Lys(DOTA)-Tyr-Phe-4Cfp-Hyp-Ile-Nva-Cys]-Asp-NH2] (Butoxycarbonyl-CTK(DOTA)YF[Pro(cis-4-F)][Hyp]I[Nva]CD-NH2; disulfide 1-10) | 39.8 to 100 | 10 to 100 | – | – |
| CCCC[C@@H]1NC(=O)[C@H](CCCNC(=N)N)NC(=O)[C@@H](NC(=O)[C@H](CC(C)C)NC(=O)[C@H](CC(=O)O)NC(C)=O)CSSC[C@@H](C(N)=O)NC(=O)[C@H](CC(C)C)NC(=O)[C@H]([C@@H](C)CC)NC(=O)[C@@H](C)NC(=O)[C@@H]2CCCN2C(=O)[C@H](Cc2ccccc2)NC(=O)[C@H](Cc2ccc(O)cc2)NC1=O [UPAR-406, Ac-Asp-Leu-[Cys-Arg-Nle-Tyr-Phe-Pro-ala-Ile-Leu-Cys]-NH2] (Ac-DLCR[Nle]YFP[dA]ILC-NH2; disulfide 3-12) | ≤ 10 | – | < 1.58 | – |
| CCCCCC(=O)N[C@H]1CSSC[C@@H](C(N)=O)NC(=O)[C@H](CC(C)C)NC(=O)[C@H]([C@@H](C)CC)NC(=O)[C@@H](C)NC(=O)[C@@H]2CCCN2C(=O)[C@H](Cc2ccccc2)NC(=O)[C@H](Cc2ccc(O)cc2)NC(=O)[C@H](CCC(N)=O)NC(=O)[C@H](CCCNC(N)=O)NC1=O [UPAR-475, Hex-[Cys-Cit-Gln-Tyr-Phe-Pro-ala-Ile-Leu-Cys]-NH2] (Hexanoyl-C[Cit]QYFP[dA]ILC-NH2; disulfide 1-10) | ≤ 10 | – | < 1.58 | – |
| Pent-[Cys-Cit-Lys(LaDOTA)-Tyr-Thi-Pro-Hyp-Ile-Nva-Cys]-NH2 [UPAR-166] | – | – | – | pIC50 CAT [1]: A (pIC50 values ≥8.0); pKD CAT (human uPAR (uPAR-Fc)): A (pKD values ≥ 8.8) |
| nBuCAyl-[Cys-Cit-Lys(LuDOTA)-Tyr-Phe-Pro-Hyp-Ile-Nva-Cys]-NH2 (nBuCAyl-C[Cit]K(DOTA(Lu))YFP[Hyp]I[Nva]C-NH2; disulfide 1-10; also: Lu(III) chelated by DOTA on Lys3) [UPAR-464] | – | – | – | pIC50 CAT [1]: A (pIC50 values ≥8.0); pKD CAT (human uPAR (uPAR-Fc); single cycle kinetics): A (pKD values ≥ 8.8) |
